US9765035B2 (priority 2013, dated 2017)
pIC50: −log10 of the molar value. Like-named read-outs stand apart in the source and are kept apart here.

Molecular target: T1, human PRMT1 (Homo sapiens, UniProt Q99873)
T1 construct: GST-tagged PRMT1; made in house; host or cells: High Five insect cells (baculovirus)
Experiment: biochemical
From the text: General Materials. S-adenosylmethionine (SAM), S-adenosylhomocysteine (SAH), bicine, Tween20, dimethylsulfoxide (DMSO), bovine skin gelatin (BSG), and Tris(2-carboxyethyl)phosphine hydrochloride solution (TCEP) were purchased from Sigma-Aldrich at the highest level of purity possible. ^3H-SAM was purchase from American Radiolabeled Chemicals with a specific activity of 80 Ci/mmol. 384-well streptavidin Flashplates were purchased from PerkinElmer.
Substrates. Peptide representative of human histone H4 residues 36-50 was synthesized with an N-terminal linker-affinity tag motif and a C-terminal amide cap by 21st Century Biochemicals. The peptide was purified by high-performance liquid chromatography (HPLC) to greater than 95% purity and confirmed by liquid chromatography mass spectrometry (LC-MS). The sequence was Biot-Ahx-[…]-amide (SEQ ID NO.:1).
Molecular Biology: Full-length human PRMT1 isoform 1 (NM_001536.5) transcript clone was amplified from an HEK 293 cDNA library, incorporating flanking 5′ sequence encoding a FLAG tag ([…]) (SEQ ID NO.:2) fused directly to Met 1 of PRMT1. The amplified gene was subcloned into pFastBacI (Life Technologies) modified to encode an N-terminal GST tag and a TEV cleavage sequence
Protein Expression. Recombinant baculovirus were generated according to Bac-to-Bac kit instructions (Life Technologies). Protein over-expression was accomplished by infecting exponentially growing High Five insect cell culture at 1.5×10^6 cell/ml with 1:100 ratio of virus. Infections were carried out at 27° C. for 48 hours, harvested by centrifugation, and stored at −80° C. for purification.
Protein Purification. […] GST-tagged PRMT1 was eluted with 50 mM Tris, 2 mM glutathione, pH 7.8, dialysed in buffer A and concentrated to 1 mg/mL. The purity of recovered protein was 73%. Reference: Wasilko, D. J. and S. E. Lee: “TIPS: titerless infected-cells preservation and scale-up” Bioprocess J., 5 (2006), pp. 29-32.
General Procedure for PRMT1 Enzyme Assays on Peptide Substrates. The assays were all performed in a buffer consisting of 20 mM Bicine (pH=7.6), 1 mM TCEP, 0.005% BSG, and 0.002% Tween 20, prepared on the day of use. Compounds in 100% DMSO (1 ul) were spotted into a polypropylene 384-well V-bottom plates (Greiner) using a Platemate Plus outfitted with a 384-channel head (Thermo Scientific). DMSO (1 ul) was added to Columns 11, 12, 23, 24, rows A-H for the maximum signal control and 1 ul of SAH, a known product and inhibitor of PRMT1, was added to columns 11, 12, 23, 24, rows I-P for the minimum signal control. A cocktail (40 ul) containing the PRMT1 enzyme was added by Multidrop Combi (Thermo-Fisher). The compounds were allowed to incubate with PRMT1 for 30 min at room temperature, then a cocktail (10 ul) containing SAM and peptide was added to initiate the reaction (final volume=51 ul). The final concentrations of the components were as follows: PRMT1 was 0.5 nM, ^3H-SAM was 200 nM, non-radiolabeled SAM was 1.5 uM, peptide was 20 nM, SAH in the minimum signal control wells was 1 mM, and the DMSO concentration was 2%. The assays were stopped by the addition of non-radiolabeled SAM (10 ul) to a final concentration of 300 uM, which dilutes the ^3H-SAM to a level where its incorporation into the peptide substrate is no longer detectable. 50 ul of the reaction in the 384-well polypropylene plate was then transferred to a 384-well Flashplate and the biotinylated peptides were allowed to bind to the streptavidin surface for at least 1 hour before being washed once with 0.1% Tween20 in a Biotek EL×405 plate washer. The plates were then read in a PerkinElmer TopCount plate reader to measure the quantity of ^3H-labeled peptide bound to the Flashplate surface, measured as disintegrations per minute (dpm) or alternatively, referred to as counts per minute (cpm).
Where dpm=disintegrations per minute, cmpd=signal in assay well, and min and max are the respective minimum and maximum signal controls. […]

[1] = biochemical evaluation, peptide substrate, read-out: PRMT1 IC50
[2] = single experiment or average of multiple experiments, read-out: PRMT1 biochemical evaluation (numerical)

T1 sequence (Q99873 other isoform, or with tags, fused parts or gaps): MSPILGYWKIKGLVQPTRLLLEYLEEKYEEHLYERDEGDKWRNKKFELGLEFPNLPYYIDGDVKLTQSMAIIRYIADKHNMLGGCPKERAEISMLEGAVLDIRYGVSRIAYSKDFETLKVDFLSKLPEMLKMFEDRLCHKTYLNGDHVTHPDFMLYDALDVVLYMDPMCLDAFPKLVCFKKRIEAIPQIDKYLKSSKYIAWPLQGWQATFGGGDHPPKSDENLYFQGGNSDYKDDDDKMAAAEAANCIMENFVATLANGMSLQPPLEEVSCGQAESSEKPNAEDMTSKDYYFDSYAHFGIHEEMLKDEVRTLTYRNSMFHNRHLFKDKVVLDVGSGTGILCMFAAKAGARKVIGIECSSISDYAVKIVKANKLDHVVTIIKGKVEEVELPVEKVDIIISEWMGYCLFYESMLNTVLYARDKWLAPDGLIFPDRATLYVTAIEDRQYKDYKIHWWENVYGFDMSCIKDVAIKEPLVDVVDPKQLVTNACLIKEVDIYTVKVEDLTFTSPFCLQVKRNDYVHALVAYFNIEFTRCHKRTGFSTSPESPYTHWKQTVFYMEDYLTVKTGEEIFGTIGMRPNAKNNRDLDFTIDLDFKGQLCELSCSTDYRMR

| Structure (SMILES) | pIC50 [1] | pIC50 [2] |
| --- | --- | --- |
| CNCCN(C)Cc1n[nH]c2ccc(C(C)C)cc12 [Compound 42, N^1-((5-isopropyl-1H-indazol-3-yl)methyl)-N^1,N^2-dimethylethane-1,2-diamine] | ≥ 7.00 | 6.11 |
| CNCCN(C)Cc1n[nH]c2ccc(N3CCC4(CCCCC4)CC3)cc12 [Compound 43, N^1-((5-(3-azaspiro[5.5]undecan-3-yl)-1H-indazol-3-yl)methyl)-N^1,N^2-dimethylethane-1,2-diamine] | > 7.00 | 6.36 |
| CNCCN(C)Cc1n[nH]c2ccc(C3CCCCC3)cc12 [Compound 47, N^1-((5-cyclohexyl-1H-indazol-3-yl)methyl)-N^1,N^2-dimethylethane-1,2-diamine] | ≥ 7.00 | 7.26 |
| CNCCN(C)Cc1n[nH]c2ccc(C3=CCCCC3)cc12 [Compound 48] | ≥ 7.00 | 7.47 |
| CNCCN(C)Cc1n[nH]c2ccc(Oc3ccccc3C(F)(F)F)cc12 [Compound 49] | 5.00 to 5.52 | 7.80 |
| CNCCN(C)Cc1n[nH]c2ccc(OCC3CCOCC3)cc12 [Compound 50] | 5.00 to 5.52 | 7.96 |
| CNCCN(C)Cc1n[nH]c2ccc(OCC3CCN(C(C)=O)CC3)cc12 [Compound 51] | 5.52 to 6.00 | 5.26 |
| CNCCN(C)Cc1n[nH]c2ccc(OCC3CCCC3)cc12 [Compound 52] | 5.52 to 6.00 | 5.43 |
| CNCCN(C)Cc1c2cc(OCc3ccc(C#N)cc3)ccc2nn1C1CCOCC1 [Compound 53] | 5.00 to 5.52 | 5.75 |
| CNCCN(C)Cc1n[nH]c2ccc(Oc3ccc(OC)cc3)cc12 [Compound 59] | > 7.00 | 7.00 |
| CNCCN(C)Cc1nn(C(C)C)c2ccc(OCc3ccc(C#N)cc3)cc12 [Compound 62] | 5.52 to 6.00 | 7.25 |
| CCOc1ccc2[nH]nc(CN(C)CCNC)c2c1 [Compound 63] | 6.00 to 7.00 | 7.01 |
| CNCCN(C)Cc1n[nH]c2ccc(OC(C)C)cc12 [Compound 64] | ≥ 7.00 | 5.58 |
| CCCOc1ccc2[nH]nc(CN(C)CCNC)c2c1 [Compound 65] | ≥ 7.00 | 6.89 |
| CNCCN(C)Cc1n[nH]c2ccc(OCc3cccc(NC(C)=O)c3)cc12 [Compound 70] | 6.00 to 7.00 | 6.73 |
| CNCCN(C)Cc1n[nH]c2ccc(OCc3ccc(C(C)(C)C)cc3)cc12 [Compound 71] | 6.00 to 7.00 | 6.69 |
| CNCCN(C)Cc1n[nH]c2ccc(OCc3cccc(C(C)(C)C)c3)cc12 [Compound 74] | 6.00 to 7.00 | 7.64 |

Now from value to compound:

| pIC50 [1] | pIC50 [2] | Structure (SMILES) |
| --- | --- | --- |
| 6.00 to 7.00 | 5.41 | CNCCN(C)Cc1n[nH]c2cccc(OCCC(O)CO)c12 (stereo not shown) [Compound 40] |
| 6.00 to 7.00 | 7.17 | CNCCN(C)Cc1n[nH]c2cccc(OCCCC(O)CO)c12 (stereo not shown) [Compound 41, 5-((3-((methyl(2-(methylamino)ethyl)amino)methyl)-1H-indazol-4-yl)oxy)pentane-1,2-diol] |
| > 7.00 | 7.36 | CNCCN(C)Cc1n[nH]c2ccc(C3CCOCC3)cc12 [Compound 44, N^1,N^2-dimethyl-N^1-((5-(tetrahydro-2H-pyran-4-yl)-1H-indazol-3-yl)methyl)ethane-1,2-diamine] |
| > 7.00 | 7.43 | CNCCN(C)Cc1n[nH]c2ccc(C3=CCOCC3)cc12 [Compound 45] |
| > 7.00 | 7.67 | CNCCN(C)Cc1n[nH]c2ccc(N3CCCCC3)cc12 [Compound 46, N^1,N^2-dimethyl-N^1-((5-(piperidin-1-yl)-1H-indazol-3-yl)methyl)ethane-1,2-diamine] |
| 6.00 to 7.00 | 5.70 | CNCCN(C)Cc1n[nH]c2ccc(OCC3CCCCC3)cc12 [Compound 54] |
| > 7.00 | 5.18 | CNCCN(C)Cc1n[nH]c2ccc(Oc3ccc(C)cc3)cc12 [Compound 55] |
| > 7.00 | 6.00 | CNCCN(C)Cc1n[nH]c2ccc(Oc3ccccc3OC(C)C)cc12 [Compound 56] |
| 6.00 to 7.00 | 7.36 | CNCCN(C)Cc1n[nH]c2ccc(Oc3ccc(Cl)cc3)cc12 [Compound 57] |
| 6.00 to 7.00 | 7.24 | CNCCN(C)Cc1n[nH]c2ccc(OC3CCN(C(C)=O)CC3)cc12 [Compound 58, 1-(4-((3-((methyl(2-(methylamino)ethyl)amino)methyl)-1H-indazol-5-yl)oxy)piperidin-1-yl)ethan-1-one] |
| > 7.00 | 6.45 | CNCCN(C)Cc1n[nH]c2ccc(Oc3ccccc3C)cc12 [Compound 60] |
| > 7.00 | 7.39 | CNCCN(C)Cc1n[nH]c2ccc(Oc3ccc(OC(C)C)cc3)cc12 [Compound 61] |
| > 7.00 | 7.46 | CNCCN(C)Cc1n[nH]c2ccc(OCc3cccc(C(N)=O)c3)cc12 [Compound 66] |
| > 7.00 | 7.61 | CNCCN(C)Cc1n[nH]c2ccc(Oc3cccc(OC(C)C)c3)cc12 [Compound 67] |
| 6.00 to 7.00 | 7.04 | CNCCN(C)Cc1n[nH]c2ccc(OCc3ccc(C(F)(F)F)cc3)cc12 [Compound 68] |
| 6.00 to 7.00 | 7.52 | CNCCN(C)Cc1n[nH]c2ccc(OCc3ccc(C(N)=O)cc3)cc12 [Compound 69] |
| > 7.00 | 6.74 | CNCCN(C)Cc1n[nH]c2ccc(OCc3cccc(C(F)(F)F)c3)cc12 [Compound 72] |
| > 7.00 | 6.85 | CNCCN(C)Cc1n[nH]c2ccc(OCc3cccc(C(C)=O)c3)cc12 [Compound 73] |
